Measurements as given in patent US10526327B2, “Histone demethylase inhibitors” (CELGENE QUANTICEL RESEARCH, INC., priority 2013, dated 2020).

Columns and labels:
Jarid1B = target: T1, Jarid1B (Homo sapiens, UniProt Q9UGL1); assay: Jarid1B in vitro enzyme inhibition assay (TR-FRET); format: biochemical
T1 construct: purchased BPS Bioscience or custom made by MolecularThroughput 50121
T1 sequence (Q9UGL1 2-751): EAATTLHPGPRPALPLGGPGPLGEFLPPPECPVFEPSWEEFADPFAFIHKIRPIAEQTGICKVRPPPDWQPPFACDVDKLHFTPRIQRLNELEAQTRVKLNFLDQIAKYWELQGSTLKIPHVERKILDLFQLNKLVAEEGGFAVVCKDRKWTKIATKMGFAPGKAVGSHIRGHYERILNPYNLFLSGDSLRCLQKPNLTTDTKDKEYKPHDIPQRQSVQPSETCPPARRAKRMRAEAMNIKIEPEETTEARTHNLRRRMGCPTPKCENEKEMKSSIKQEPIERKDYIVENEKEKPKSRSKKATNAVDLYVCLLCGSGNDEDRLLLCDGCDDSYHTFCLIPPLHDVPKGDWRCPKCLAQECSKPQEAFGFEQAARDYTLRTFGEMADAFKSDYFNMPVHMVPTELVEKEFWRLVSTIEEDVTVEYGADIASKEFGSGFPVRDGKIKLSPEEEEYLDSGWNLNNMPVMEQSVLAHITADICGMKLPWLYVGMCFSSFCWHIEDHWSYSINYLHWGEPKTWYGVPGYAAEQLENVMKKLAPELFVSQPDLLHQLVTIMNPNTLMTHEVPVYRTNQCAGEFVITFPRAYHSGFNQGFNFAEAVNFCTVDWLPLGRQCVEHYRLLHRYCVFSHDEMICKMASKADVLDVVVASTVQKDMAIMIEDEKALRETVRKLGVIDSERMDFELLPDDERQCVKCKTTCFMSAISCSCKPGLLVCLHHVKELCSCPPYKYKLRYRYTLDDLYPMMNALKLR
How it was run: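 Jarid1B (AA 2-751, baculovirus-expressed) at 0.8 nM with 300 nM biotin-H3K4me3 peptide and 2 μM α-ketoglutarate in HEPES pH 7.3 with ascorbate and Fe(II), 30 min at room temperature. Stopped with EDTA; H3K4me1-2 product detected by TR-FRET (665/615 ratio) and IC50 fitted from 11-point dilutions.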

JMJD2C = target: T2, JMJD2C (Homo sapiens, UniProt Q9H3R0); assay: JMJD2C in vitro enzyme inhibition assay (TR-FRET); format: biochemical
T2 construct: purchased BPS Bioscience 50105
T2 sequence (Q9H3R0 2-372): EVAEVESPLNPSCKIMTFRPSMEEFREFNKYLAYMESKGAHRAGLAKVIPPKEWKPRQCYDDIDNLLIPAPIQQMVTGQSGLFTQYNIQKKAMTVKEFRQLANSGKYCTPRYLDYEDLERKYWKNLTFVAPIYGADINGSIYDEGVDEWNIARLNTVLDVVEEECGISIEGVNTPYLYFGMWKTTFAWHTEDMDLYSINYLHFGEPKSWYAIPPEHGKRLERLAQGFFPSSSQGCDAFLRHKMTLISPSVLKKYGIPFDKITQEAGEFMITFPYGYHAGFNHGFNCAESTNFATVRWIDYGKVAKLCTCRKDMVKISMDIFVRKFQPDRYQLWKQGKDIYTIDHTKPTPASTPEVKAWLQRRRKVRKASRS
How it was run: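 Baculovirus-expressed human JMJD2C (AA 2-372) at 0.3 nM demethylated 300 nM biotin-H3K9me3 peptide with 2 μM alpha-ketoglutarate in HEPES pH 7.3 containing ascorbate and Fe(II), 30 min at room temperature. EDTA-stopped product was read by TR-FRET with Eu-anti-H3K9me2 and streptavidin-APC; 665/615 ratios from 11-point dilutions gave IC50.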

Row | SMILES | IC50 (Jarid1B) [nM] | IC50 (JMJD2C) [nM]
1 | O=S(=O)(C1CC1)N1CCCC(n2cc(Oc3nc(O)c4ccncc4n3)cn2)C1 (stereo in doubt) [Example 151, 2-({1-[(3S)-1-(cyclopropanesulfonyl)piperidin-3-yl]-1H-pyrazol-4-yl}oxy)pyrido[3,4-d]pyrimidin-4-ol] | ≤ 100 | ≤ 100
2 | Oc1nc(OCCC(F)(F)F)nc2cnccc12 [Example 13, 2-(3,3,3-trifluoropropoxy)pyrido[3,4-d]pyrimidin-4-ol] | 100 to 1000 | 100 to 1000
3 | CC(C)COc1nc(O)c2ccncc2n1 [Example 14, 2-(2-methylpropoxy)pyrido[3,4-d]pyrimidin-4-ol] | 100 to 1000 | 100 to 1000
4 | CC(C)CCOc1nc(O)c2ccncc2n1 [Example 15, 2-(3-methylbutoxy)pyrido[3,4-d]pyrimidin-4-ol] | ≤ 100 | 100 to 1000
5 | CCC(C)COc1nc(O)c2ccncc2n1 (stereo not shown) [Example 16, 2-(2-methylbutoxy)pyrido[3,4-d]pyrimidin-4-ol] | 100 to 1000 | 100 to 1000
6 | Oc1nc(OCCCC(F)(F)F)nc2cnccc12 [Example 20, 2-(4,4,4-trifluorobutoxy)pyrido[3,4-d]pyrimidin-4-ol] | ≤ 100 | 100 to 1000
7 | CN(C)CCCOc1nc(O)c2ccncc2n1 [Example 21, 2-[3-(dimethylamino)propoxy]pyrido[3,4-d]pyrimidin-4-ol] | 1000 to 10000 | 100 to 1000
8 | COCCOc1nc(O)c2ccncc2n1 [Example 22, 2-(2-methoxyethoxy)pyrido[3,4-d]pyrimidin-4-ol] | 100 to 1000 | 100 to 1000
9 | Cn1cnc(-c2nccc3c(O)nc(OCc4ccccc4C(F)(F)F)nc23)c1 [Example 107, 8-(1-methyl-1H-imidazol-4-yl)-2-{[2-(trifluoromethyl)phenyl]methoxy}pyrido[3,4-d]pyrimidin-4-ol] | ≤ 100 | 100 to 1000
10 | Cn1cnc(-c2nccc3c(O)nc(O[C@H](c4ccccc4)C(F)(F)F)nc23)c1 [Example 108, 8-(1-methyl-1H-imidazol-4-yl)-2-[(1R)-2,2,2-trifluoro-1-phenylethoxy]pyrido[3,4-d]pyrimidin-4-ol] | 1000 to 10000 | 100 to 1000
11 | Cn1cnc(-c2nccc3c(O)nc(O[C@@H](c4ccccc4)C(F)(F)F)nc23)c1 [Example 109, 8-(1-methyl-1H-imidazol-4-yl)-2-[(1S)-2,2,2-trifluoro-1-phenylethoxy]pyrido[3,4-d]pyrimidin-4-ol] | 1000 to 10000 | 100 to 1000
12 | CCC(Oc1nc(O)c2ccnc(-c3cn(C)cn3)c2n1)C(F)(F)F (stereo not shown) [Example 110, 8-(1-methyl-1H-imidazol-4-yl)-2-[(1,1,1-trifluorobutan-2-yl)oxy]pyrido[3,4-d]pyrimidin-4-ol] | 100 to 1000 | 1000 to 10000
13 | Cn1cnc(-c2nccc3c(O)nc(OCc4ccc(C(F)(F)F)cc4)nc23)c1 [Example 111, 8-(1-methyl-1H-imidazol-4-yl)-2-{[4-(trifluoromethyl)phenyl]methoxy}pyrido[3,4-d]pyrimidin-4-ol] | 100 to 1000 | 100 to 1000
14 | Cn1cnc(-c2nccc3c(O)nc(OCc4ccc(Cl)cc4)nc23)c1 [Example 112, 2-[(4-chlorophenyl)methoxy]-8-(1-methyl-1H-imidazol-4-yl)pyrido[3,4-d]pyrimidin-4-ol] | ≤ 100 | 100 to 1000
15 | Cn1cnc(-c2nccc3c(O)nc(Oc4ccc(Cl)c(Cl)c4)nc23)c1 [Example 113, 2-(3,4-dichlorophenoxy)-8-(1-methyl-1H-imidazol-4-yl)pyrido[3,4-d]pyrimidin-4-ol] | ≤ 100 | ≤ 100

Next, values leading:

Row | IC50 (Jarid1B) [nM] | IC50 (JMJD2C) [nM] | SMILES
16 | ≤ 100 | ≤ 100 | Oc1nc(Oc2cnn(C3CCCN(c4ccc(F)cc4)C3)c2)nc2cnccc12 (stereo in doubt) [Example 169, 2-({1-[(3R)-1-(4-fluorophenyl)piperidin-3-yl]-1H-pyrazol-4-yl}oxy)pyrido[3,4-d]pyrimidin-4-ol]
17 | 100 to 1000 | 100 to 1000 | CC(COc1nc(O)c2ccncc2n1)c1ccccc1 (stereo not shown) [Example 17, 2-(2-phenylpropoxy)pyrido[3,4-d]pyrimidin-4-ol]
18 | ≤ 100 | 100 to 1000 | Oc1nc(OCCc2ccccc2)nc2cnccc12 [Example 18, 2-(2-phenylethoxy)pyrido[3,4-d]pyrimidin-4-ol]
19 | 1000 to 10000 | 1000 to 10000 | CC(Cc1ccccc1)Oc1nc(O)c2ccncc2n1 (stereo not shown) [Example 19, 2-(1-phenylpropan-2-yloxy)pyrido[3,4-d]pyrimidin-4-ol]
20 | ≤ 100 | ≤ 100 | Oc1nc(Oc2ccc(Cl)c(Cl)c2)nc2cnccc12 [Example 114, 2-(3,4-dichlorophenoxy)pyrido[3,4-d]pyrimidin-4-ol]
21 | ≤ 100 | ≤ 100 | CCC(c1ccccc1)n1cc(Oc2nc(O)c3ccncc3n2)cn1 (stereo not shown) [Example 115, 2-{[1-(1-phenylpropyl)-1H-pyrazol-4-yl]oxy}pyrido[3,4-d]pyrimidin-4-ol]
22 | ≤ 100 | ≤ 100 | Oc1nc(Oc2cnn(C(c3ccccc3)C3CC3)c2)nc2cnccc12 (stereo not shown) [Example 116, 2-({1-[cyclopropyl(phenyl)methyl]-1H-pyrazol-4-yl}oxy)pyrido[3,4-d]pyrimidin-4-ol]
23 | ≤ 100 | ≤ 100 | C[C@H](c1ccccc1)n1cc(Oc2nc(O)c3ccncc3n2)cn1 [Example 117, 2-({1-[(1R)-1-phenylethyl]-1H-pyrazol-4-yl}oxy)pyrido[3,4-d]pyrimidin-4-ol]
24 | ≤ 100 | ≤ 100 | C[C@@H](c1ccccc1)n1cc(Oc2nc(O)c3ccncc3n2)cn1 [Example 118, 2-({1-[(1S)-1-phenylethyl]-1H-pyrazol-4-yl}oxypyrido) [3,4-d]pyrimidin-4-ol]
25 | ≤ 100 | ≤ 100 | C[C@H](c1ccccc1F)n1cc(Oc2nc(O)c3ccncc3n2)cn1 [Example 119, 2-({1-[(1R)-1-(2-fluorophenyl)ethyl]-1H-pyrazol-4-yl}oxy)pyrido[3,4-d]pyrimidin-4-ol]
26 | ≤ 100 | ≤ 100 | C[C@@H](c1ccccc1F)n1cc(Oc2nc(O)c3ccncc3n2)cn1 [Example 120, 2-({1-[(1s)-1-(2-fluorophenyl)ethyl]-1H-pyrazol-4-yl}oxy)pyrido[3,4-d]pyrimidin-4-ol]
27 | ≤ 100 | ≤ 100 | Oc1nc(Oc2cnn(Cc3ccccc3Cl)c2)nc2cnccc12 [Example 121, 2-({1-[(2-chlorophenyl)methyl]-1H-pyrazol-4-yl}oxy)pyrido[3,4-d]pyrimidin-4-ol]
28 | ≤ 100 | ≤ 100 | Oc1nc(Oc2cnn(Cc3cccc(Cl)c3)c2)nc2cnccc12 [Example 122, 2-({1-[(3-chlorophenyl)methyl]-1H-pyrazol-4-yl}oxy)pyrido[3,4-d]pyrimidin-4-ol]
29 | ≤ 100 | ≤ 100 | Oc1nc(Oc2cnn(C3CCN(Cc4ccccc4)CC3)c2)nc2cnccc12 [Example 123, 2-{[1-(1-benzylpiperidin-4-yl)-1H-pyrazol-4-yl]oxy}pyrido[3,4-d]pyrimidin-4-ol]
30 | ≤ 100 | ≤ 100 | Oc1nc(Oc2cnn(CCN3CCOCC3)c2)nc2cnccc12 [Example 124, 2-({1-[2-(morpholin-4-yl)ethyl]-1H-pyrazol-4-yl}oxy)pyrido[3,4-d]pyrimidin-4-ol]
31 | ≤ 100 | ≤ 100 | Oc1nc(Oc2cnn([C@@H]3CCNC3)c2)nc2cnccc12 [Example 125, 2-({1-[(3R)-pyrrolidin-3-yl]-1H-pyrazol-4-yl}oxy)pyrido[3,4-d]pyrimidin-4-ol]
32 | ≤ 100 | ≤ 100 | CCS(=O)(=O)N1CC[C@@H](n2cc(Oc3nc(O)c4ccncc4n3)cn2)C1 [Example 126, 2-({1-[(3R)-1-(ethanesulfonyl)pyrrolidin-3-yl]-1H-pyrazol-4-yl}oxy)pyrido[3,4-d]pyrimidin-4-ol]
